Values belong to the molecule of their own block, whether it stands above or below them.
Assays:
rats [1] = experiment: Bioavailability studies on rats (liver and kidney functions, blood picture, lipid profile); format: in vivo
Excerpt: The study on rats included five groups, group 1 control, 2 receiving cu, group.2 pyrazinic, group 3 complex with large dose, & group 5 receiving complex with small dose.

[2] = tested on: male infertility (sperm count, motility); experiment: Male infertility study, 20 patients; format: in vivo, human
[3] = Physical properties: stability of the complex; format: physicochemical; settings: solid, when well-dried
[4] = tested on: stem cell differentiation; experiment: In vivo stem cell, CD4 and CD8 counts before and during medication; settings: before and at regular intervals of medication
Excerpt: We hypothesized that the drug may have a role in stimulating the stem cells present in the various organs to differentiate. […] In vivo we measured the stem cell count together with CD8 and CD4 cells before, and at regular intervals of medication.

rats [5] = experiment: Toxicity of the complex (LD50, mortality within 24 hrs); format: in vivo
Method: Seventy two rats (250+/−2.0 g b.wt) were randomly located into 12 groups of 6 rats each.
Mortality in each group were recorded within 24 hrs.

[6] = Physical properties: solubility of the complex; format: physicochemical
Excerpt: Solubility: the complex is insoluble in non-polar solvents, e.g. benzene, carbon tetrachloride, etc., and insoluble in polar solvents: water, methanol, ethanol, acetone, but soluble in these solvents upon heating in inert atmosphere, to prevent oxidation.

fatigue = experiment: Clinical trials for treatment of fatigue in humans; format: in vivo
[7] = tested on: muscle weakness (muscle dystrophies, post stroke weakness); experiment: Clinical trials for treatment of weakness of muscles; format: in vivo, human
Excerpt: The complex used in treatment of muscle weakness for different underlying causes (muscle dystrophies post stroke weakness). […] When the patient reaches the optimum dose, onset of improvement in muscle power is observed within hours of drug intake.

dilated Cardiomyopathy = experiment: Clinical trials in cardiomyopathy; format: in vivo, human; settings: clinically and in ECHO cardiographic measurements
Excerpt: Improvement is shown both clinically and in the ECHO cardiographic measurements.

Lipid profile (rats [1]): didn't show significant difference
liver and kidney functions versus control (rats [1]): no significant difference
Molecule: O=C(O)c1cnccn1 [pyrazinic, pyrazinic acid, reference compound]

Molecule: [CuCI (pyrazinic acid)2].2H2O [complex]
sperm motility ([2]; all cases): significant improvement of motility
azospermic patients who got healthy babies ([2]; among the responders): two of them got healthy babies
oligospermia cases who got healthy babies ([2]; human, in vivo): four cases got also healthy babies
sperm count in azospermic patients after treatment ([2]; responders, within 6 weeks of treatment): 1.5-3 millions/hpf
sperm count in Oligospermia ([2]; within 1 month of treatment): doubling of the count
azospermic patients whose count increased ([2]; within 6 weeks of treatment): seven out of nine
Lipid profile (rats [1]): didn't show significant difference
liver and kidney functions versus control (rats [1]): no significant difference
lymphocytic count (complete blood picture) (rats [1]; large and small dose groups, not exceeding the normal range): increase of lymphocytic count
Stability [3]: sufficiently stable when well-dried
CD4/CD8 [4]: no disturbance
CD4 and CD8 number [4]: increase
stem cell count [4]: significant decrease
LD50 (intrapperitoneally) (rats [5]; intraperitoneal): 128 mg/kg
LD50 (oral) (rats [5]; oral): 1104.17 mg/kg
Solubility in non-polar solvents ([6]; e.g. benzene, carbon tetrachloride): insoluble
Solubility in polar solvents upon heating ([6]; upon heating in inert atmosphere): soluble
Solubility in polar solvents ([6]; water, methanol, ethanol, acetone): insoluble
muscle pain (fatigue; all types of fatigue): relieved the muscle pain
physical activity and productivity (fatigue; all types of fatigue): increased the physical activity and productivity
agonizing fatigue in Parkinsonism, myositis, disseminated sclerosis (fatigue; human, in vivo): improves markedly
Clinical improvement in DMS patients ([7]; affected by age, weight and degree of dystrophy): dose dependant
onset of improvement in muscle power ([7]; at optimum dose, after drug intake): within hours
cases improved, dilated cardiomyopathy due to other causes (dilated Cardiomyopathy): 80%
improvement of dilated Cardiomyopathy secondary to Duchenne muscle dystrophy (dilated Cardiomyopathy): improved all cases
